The PolyMetriX glass transition set
± gives the standard deviation of the reports.

Row | glass transition temperature | Structure (SMILES)
1 | 214.00 °C | *Oc1ccc(C2(c3ccc(OC(=O)OC4C(C)(C)C(OC(*)=O)C4(C)C)cc3)c3ccccc3-c3ccccc32)cc1 (repeat unit)
2 | 251.50 °C | *Oc1ccc(C2(c3ccc(OC(*)=O)cc3)CC3CC2C2CCCC32)cc1 (repeat unit)
3 | 254.00 °C | *Oc1cc(C(C)(C)C)c(Oc2ccc(C(=O)Nc3ccc(C(C)(C)c4ccc(NC(=O)c5ccc(*)cc5)cc4)cc3)cc2)cc1C(C)(C)C (repeat unit)
4 | 131.00 °C | *CC(OCC)C(C)(C(=O)OC)C(*)(C)C(=O)OC (repeat unit)
5 | 121.00 °C | *Oc1ccc(C(CC)(CC)c2ccc(OC(*)=S)cc2)cc1 (repeat unit)
6 | 335.00 °C | *c1ccc2c(c1)C(=O)N(c1c(C)cc(C3(c4cc(C)c(N5C(=O)c6ccc(C(*)(C(F)(F)F)C(F)(F)F)cc6C5=O)c(C(C)C)c4)c4ccccc4-c4ccccc43)cc1C(C)C)C2=O (repeat unit)
7 | 345.00 °C | *c1ccc(-c2nc3cc(S(=O)(=O)c4ccc5nc(-c6ccccc6)c(*)nc5c4)ccc3nc2-c2ccccc2)cc1 (repeat unit)
8 | 226.00 °C | *c1ccc(Oc2ccc(N3C(=O)c4cccc(Oc5cccc(Oc6cccc7c6C(=O)N(*)C7=O)c5)c4C3=O)cc2)cc1 (repeat unit)
9 | 286.00 °C | *c1ccc(-c2ccc(N3C(=O)c4ccc(Oc5ccc6c(c5)C(=O)N(*)C6=O)cc4C3=O)cc2)cc1 (repeat unit)
10 | 207.00 °C | *C(=O)Nc1ccc(Oc2ccc(C(C)(C)c3ccc(Oc4ccc(NC(=O)c5ccc6c(c5)C(=O)N(c5ccc(Oc7cccc(N8C(=O)c9ccc(*)cc9C8=O)c7)cc5)C6=O)cc4)cc3)cc2)cc1 (repeat unit)
11 | 267.50 °C | *Oc1ccc(C2(c3ccc(OC(*)=O)cc3)CC3CC2C2C4CCC(C4)C32)cc1 (repeat unit)
12 | 199.00 °C | *C(=O)Nc1cccc(Oc2cccc(Oc3cccc(Oc4cccc(Oc5cccc(NC(=O)c6ccc7c(c6)C(=O)N(c6ccc(Oc8cccc(Oc9ccc(N%10C(=O)c%11ccc(*)cc%11C%10=O)cc9)c8C#N)cc6)C7=O)c5)c4C#N)c3)c2C#N)c1 (repeat unit)
13 | 151.00 °C | *c1cc(C(=O)OCCCCCCCCCCOc2ccc(-c3ccc(OC(=O)c4ccc(OCC(F)CCCCCC)cc4)cc3)cc2)c(*)s1 (repeat unit)
14 | 120.00 °C | *Oc1ccccc1C(=O)OC(=O)c1ccccc1OC(=O)c1ccc(C(*)=O)cc1 (repeat unit)
15 | 125.00 °C | *Oc1ccc(C(=O)c2ccc(OC(=O)OC3C(C)(C)C(OC(*)=O)C3(C)C)cc2)cc1 (repeat unit)
16 | 254.00 °C | *c1cc(C(=O)OCC)cc(N2C(=O)CC(C3Cc4ccccc4C4C(=O)N(*)C(=O)C43)C2=O)c1 (repeat unit)
17 | 281.00 °C | *Oc1c(Cl)cc(C2(c3cc(Cl)c(OC(*)=O)c(Cl)c3)CC3CC2C2CCCC32)cc1Cl (repeat unit)
18 | 256.00 °C | *Oc1cccc2ccc(Oc3ccc(NC(=O)c4cccc(C(=O)Nc5ccc(*)cc5)c4)cc3)cc12 (repeat unit)

Row | Structure (SMILES) | glass transition temperature
19 | *CC(*)c1ccc(Br)cc1 (repeat unit) [Poly(4-bromostyrene)] | 140.4 ± 5.4 °C
20 | *=NP(=NP(=NC(=*)Oc1ccc(C(F)(F)F)cc1)(Oc1ccc(C(F)(F)F)cc1)Oc1ccc(C(F)(F)F)cc1)(Oc1ccc(C(F)(F)F)cc1)Oc1ccc(C(F)(F)F)cc1 (repeat unit) | 31.00 °C
21 | *OC1C(C)(C)C(OC(*)=O)C1(C)C (repeat unit) | 160.00 °C
22 | *CC(OCC(C)C)C1C(=O)OC(=O)C1* (repeat unit) | 145.00 °C
23 | *C(=O)c1ccc(N(*)CCCCC)cc1 (repeat unit) | 83.50 °C
24 | *c1cccc(Oc2ccc(P(=O)(c3ccccc3)c3ccccc3)c(Oc3cccc(N4C(=O)c5ccc(Oc6ccc(-c7ccc(Oc8ccc9c(c8)C(=O)N(*)C9=O)cc7)cc6)cc5C4=O)c3)c2)c1 (repeat unit) | 227.00 °C
